Experimental data published in US6255497A, “Method for the inhibition of ALDH-I useful in the treatment of alcohol dependence or alcohol abuse” (priority 1998, dated 2001).
In brackets after ≈: the same amount, converted by molar mass. Where two headings read alike, the source gives them in different places.

Legend:
ALDH-I or ALDH-II = assay: Survey of structurally related compounds for ALDH inhibition; type: biochemical, human
Protocol: (§1) For the study of the inhibition of ALDH-I by structurally related compounds to generate the data shown in Tables IV and V, each individual compound was dissolved at different concentrations in methanol and was added to the assay medium as 10 μL aliquots. For controls, 10 […] of methanol was added to the assay medium. In a standard ALDH-I assay, the assay medium contains 0.1 M sodium pyrophosphate pH 9.5, 0.15 M KCl, 1 mM NAD^+, 1% methanol, 5 μM acetaldehyde, 5-10 nM ALDH-I and various concentrations of inhibitor. The enzyme reaction rates were measured by monitoring the production of NADH at 340 nm (ε=6.22 mM^-1 cm^-1) with a Varian Cary 219 spectrophotometer thermostated at 25° C. (Fong et al., 1989, supra). The inhibition of ALDH-I by the inhibitors was calculated as: [formula]
(§2) where Vo is the enzyme reaction rate measured in the absence of inhibitor, and where Vi is the enzyme reaction rate measured in the presence of inhibitor. […] IC50 values are related to the underlying Ki values.

ALDH-I [1] = molecular target: T1, ALDH-I (Homo sapiens, UniProt P05091); assay: ALDH-I inhibition by structurally related compounds, acetaldehyde as substrate; type: biochemical; design: A liver sample (50 g wet weight) with the usual Caucasian ALDH phenotype (both ALDH-I and ALDH-II present); from tissue; host or cells: human liver (autopsy), purified by CM-52, AMP-agarose and DEAE HPLC
T1 sequence (P05091 18-517): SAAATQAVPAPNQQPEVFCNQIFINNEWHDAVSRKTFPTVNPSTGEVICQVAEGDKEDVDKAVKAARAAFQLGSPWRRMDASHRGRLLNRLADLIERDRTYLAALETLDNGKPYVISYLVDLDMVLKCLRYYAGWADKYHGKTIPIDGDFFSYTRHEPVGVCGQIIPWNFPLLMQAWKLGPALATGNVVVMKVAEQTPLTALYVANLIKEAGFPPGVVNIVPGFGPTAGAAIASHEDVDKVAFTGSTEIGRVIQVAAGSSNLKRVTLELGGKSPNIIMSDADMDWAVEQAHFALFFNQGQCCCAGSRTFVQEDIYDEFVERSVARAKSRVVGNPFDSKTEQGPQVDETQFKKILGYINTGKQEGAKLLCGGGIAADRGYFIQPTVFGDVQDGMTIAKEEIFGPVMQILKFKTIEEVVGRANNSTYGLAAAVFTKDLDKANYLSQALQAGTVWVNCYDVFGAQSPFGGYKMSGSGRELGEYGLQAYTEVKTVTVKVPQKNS
Protocol: (§3) *ALDH activities were assayed at 25° C. in 0.1 M sodium
(§4) pyrophosphate buffer pH 9.5 containins 0.15 M KCl, 1 mM NAD^+, various
(§5) concentrations of inhibitors and 5 and 200 μM acetaldehyde for ALDH-I
(§6) and ALDH-II, respectively.
For controls, 10 .eta.L of methanol was added to the assay medium. In a standard ALDH-I assay, the assay medium contains 0.1 M sodium pyrophosphate pH 9.5, 0.15 M KCl, 1 mM NAD^+, 1% methanol, 5 μM acetaldehyde, 5-10 nM ALDH-I and various concentrations of inhibitor. […] (Fong et al., 1989, supra). The inhibition of ALDH-I by the inhibitors was calculated as: [formula]
as §2

ALDH-II [2] = molecular target: T2, ALDH-II (Homo sapiens, UniProt P00352); assay: ALDH-II inhibition by structurally related compounds, acetaldehyde as substrate; type: biochemical; design: A liver sample (50 g wet weight) with the usual Caucasian ALDH phenotype (both ALDH-I and ALDH-II present); from tissue; host or cells: human liver (autopsy), purified by CM-52, AMP-agarose and DEAE HPLC
T2 sequence (P00352 1-501): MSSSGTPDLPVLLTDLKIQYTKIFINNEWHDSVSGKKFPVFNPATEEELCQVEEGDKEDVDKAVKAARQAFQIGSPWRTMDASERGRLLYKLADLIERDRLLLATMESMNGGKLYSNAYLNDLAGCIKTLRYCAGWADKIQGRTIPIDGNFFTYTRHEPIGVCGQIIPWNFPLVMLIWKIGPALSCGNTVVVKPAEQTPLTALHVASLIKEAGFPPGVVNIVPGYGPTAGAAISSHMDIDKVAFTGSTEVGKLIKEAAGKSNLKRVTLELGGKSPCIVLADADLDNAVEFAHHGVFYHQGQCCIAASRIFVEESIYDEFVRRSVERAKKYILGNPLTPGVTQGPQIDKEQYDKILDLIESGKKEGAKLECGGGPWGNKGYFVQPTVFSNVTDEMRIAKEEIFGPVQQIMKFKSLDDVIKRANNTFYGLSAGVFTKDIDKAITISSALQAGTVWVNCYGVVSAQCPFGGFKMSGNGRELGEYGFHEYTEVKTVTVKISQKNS
Protocol: as §3, §4, §5, §6, §1, §2

ALDH-II [3] = molecular target: T2, ALDH-II; assay: Competitive inhibition of ALDH-II with acetaldehyde as substrate; type: biochemical; design: A liver sample (50 g wet weight) with the usual Caucasian ALDH phenotype (both ALDH-I and ALDH-II present); from tissue; host or cells: human liver (autopsy), purified by CM-52, AMP-agarose and DEAE HPLC; conditions: acetaldehyde as substrate, competitive; read-out: Ki, ALDH-II
physchem = conditions: water
golden hamsters = assay: Dose effect on free choice ethanol intake in golden hamsters, i.p.; type: in vivo, golden hamster; conditions: 10 mg/day, i.p.
Source text: It is common practice in quantitative drug studies with rodents to use intraperitoneal (i.p.) administration to deliver drug doses accurately (Goodman and Gilman, 1975, The Pharmacological Basis of Therapeutics, 5th ed., Macmillan, N.Y., p. 8). In particular, this method avoids variability introduced by technical difficulties of oral administration via feeding (full versus empty stomach, etc.), variations in drug transport in the gastrointestinal tract (variations in intestinal fauna and flora, individual variations in absorption rate expected of outbred animals, etc.) and other factors. […] As a control 1 ml of sterile saline was injected i.p. daily during the baseline period (typically 7-9 days) that establishes drinking preference without the drug. Saline injection i.p. had no effect on the drinking behavior of golden hamsters. Ethanol was provided as a 20% solution. Hamsters could be used more than once (but were not used more than three times) in a cycle of baseline saline injections followed by drug injections, each cycle with the drug at a different dose.
The response to daidzin treatment was computed as:
% Response=(Vo -Vd)×100/Vo

ALDH-I [4] = molecular target: T1, ALDH-I; assay: Reversibility of ALDH-I inhibition (preincubation, then dilution); type: biochemical; design: A liver sample (50 g wet weight) with the usual Caucasian ALDH phenotype (both ALDH-I and ALDH-II present); from tissue; host or cells: human liver (autopsy), purified by CM-52, AMP-agarose and DEAE HPLC
ALDH-I [5] = molecular target: T1, ALDH-I; assay: Inhibition kinetics of ALDH-I, initial velocity method, formaldehyde as substrate; conditions: for potency as ALDH-I inhibitor, fold less than that of daidzin / relative potency as ALDH-I inhibitor, in words: compared with daidzin
Protocol: The kinetic data were analyzed by standard graphical methods.

ALDH-II [6] = molecular target: T2, ALDH-II; assay: Inhibition kinetics of ALDH-II, initial velocity method, formaldehyde as substrate
Protocol: (§7) The inhibition kinetics were studied by the initial velocity method (Dixon and Webb, 1979, Enzymes, 3rd ed., Longman, Great Britain). […] The initial reaction rates were measured in a pH 9.5 assay medium 0.1 11 in glycine-NaOH, 0. […] The enzyme reaction rates were followed by monitoring the production of NADH at 340 nm (ε-6.22 mM^-1 cm^-1) with a Varian Cary 219 spectrophotometer thermostated at 25° C. The kinetic data were analyzed by standard graphical methods.

[7] = substrate: C=O; assay: purified protein, by the assay type; conditions: pH 9.5; 25.0 °C
Protocol: as §7

[8] = 5 μM acetaldehyde, 1 mM NAD+, pH 9.5, 25° C., read-out: IC50, ALDH-I
[9] = 200 μM acetaldehyde, 1 mM NAD+, pH 9.5, 25° C., read-out: IC50, ALDH-II

## CN1CC(=O)NC1=O [1-methylhydantoin]
ALDH-I or ALDH-II
  ALDH inhibition: not inhibitory

## c1ccc(-c2ccc3ccccc3n2)cc1 [2-phenylquinoline]
ALDH-I or ALDH-II
  ALDH inhibition: did not inhibit

## CC(=O)Oc1ccc2c(=O)c(Cc3ccccc3)c(C)oc2c1OC(C)=O [3-Benzyl-7,8-diacetoxy-2-methylchromone]
ALDH-I [1]; [8]
  IC50: 10000 nM
ALDH-II [2]; [9]
  IC50: 3000 nM

## O=c1c(-c2ccccc2)c(-c2ccccc2)oc2cc(O)ccc12 [3-Phenyl-7-hydroxyflavone]
ALDH-I [1]; [8]
  IC50: 10000 nM
ALDH-II [2]; [9]
  IC50: 2000 nM

## CC(C)c1ccc(-c2coc3ccccc3c2=O)cc1 [4'-Isopropylisoflavone]
ALDH-I [1]; [8]
  IC50: 5000 nM
ALDH-II [2]; [9]
  IC50: 1500 nM

## CC1=C(c2ccccc2)C(=O)OC2CC(Cl)CCC12 (stereo not shown) [7-Chloro-4A,5,6,7,8,8A-hexahydro-4-methyl-3-phenylcoumarin]
ALDH-I [1]; [8]
  IC50: 1000 nM
ALDH-II [2]; [9]
  IC50: 1000 nM

## O=c1cc(-c2ccccc2)c2ccc(O)cc2o1 [7-Hydroxy-4-phenylcoumarin]
ALDH-II [2]; [9]
  IC50: 300 nM

## Cc1ccc2c(c1)OC(=O)CC2c1ccccc1 (stereo not shown) [7-Methyl-4-phenyl-3,4-dihydrocoumarin]
ALDH-II [2]; [9]
  IC50: 500 nM

## COc1ccc(-c2cc(=O)c3c(O)cc(O)cc3o2)cc1 [Acacetin]
ALDH-I [1]; [8]
  IC50: 5000 nM
ALDH-II [2]; [9]
  IC50: 5000 nM

## O=C(O)CCCCCCCCCCOc1ccc2c(=O)c(-c3ccc(O)cc3)coc2c1 [Daidzein 7-(ω-carboxydecyl) ether, daidzein 7-(ω-carboxydecyl)ether]
ALDH-II [3]
  Ki: 185 nM
physchem
  solubility: 9 mM (≈ 3950 µg/mL)

## O=C(O)CCCCCOc1ccc2c(=O)c(-c3ccc(O)cc3)coc2c1 [Daidzein 7-(ω-carboxypentyl) ether, daidzein 7-(ω-carboxypentyl) ether]
ALDH-II [3]
  Ki: 450 nM
Golden hamsters; trained hamster C14
  suppression of alcohol intake, hamster C14: 56%
Golden hamsters; trained hamster D6
  suppression of alcohol intake, hamster D6: 72%
physchem
  solubility: 26 mM (≈ 9580 µg/mL)

## O=c1cc(-c2ccccc2)oc2ccccc12 [Flavone]
ALDH-I [1]; [8]
  IC50: 10000 nM
ALDH-II [2]; [9]
  IC50: 5000 nM

## O=c1c(-c2ccc(O)cc2)coc2cc(O[C@@H]3O[C@H](CO)[C@@H](O)[C@H](O)[C@H]3O)cc(O)c12 [Genistin]
ALDH-I [4]
  reversibility of ALDH-I inhibition: reversible selective inhibitor of ALDH-I
ALDH-I [5]
  Ki: 360 nM
  selectivity of ALDH inhibition: selectively inhibited ALDH-I
  potency as ALDH-I inhibitor, fold less than that of daidzin: approximately 10 fold
  relative potency as ALDH-I inhibitor, in words: nearly an order of magnitude less potent as an inhibitor than daidzin
ALDH-II [6]
  Ki: > 20000 nM
ALDH-I [1]; [8]
  IC50: 2000 nM
ALDH-II [2]
  IC50: > 20000 nM

## COc1ccc(-c2coc3cc(O[C@@H]4O[C@H](CO)[C@@H](O)[C@H](O)[C@H]4O)ccc3c2=O)cc1 [Ononin]
ALDH-II [2]; [9]
  IC50: 20000 nM

## COc1cc(O)c2c(=O)c(-c3ccc(O)cc3)coc2c1 [Prunetin]
ALDH-I [5]
  Ki: 300 nM
  selectivity of ALDH inhibition: selectively inhibited ALDH-I
  potency as ALDH-I inhibitor, fold less than that of daidzin: approximately 10 fold
  relative potency as ALDH-I inhibitor, in words: nearly an order of magnitude less potent as an inhibitor than daidzin
ALDH-II [6]
  Ki: 12000 nM
ALDH-I [1]
  IC50: 1000 nM
ALDH-II [2]
  IC50: 12000 nM

## NC(=O)NC1NC(=O)NC1=O (stereo not shown) [allantoin]
ALDH-I or ALDH-II
  ALDH inhibition: not inhibitory

B1: human ALDH-I (Homo sapiens) (protein)
chain: SAAATQAVPAPNQQPEVFCNQIFINNEWHDAVSRKTFPTVNPSTGEVICQVAEGDKEDVDKAVKAARAAFQLGSPWRRMDASHRGRLLNRLADLIERDRTYLAALETLDNGKPYVISYLVDLDMVLKCLRYYAGWADKYHGKTIPIDGDFFSYTRHEPVGVCGQIIPWNFPLLMQAWKLGPALATGNVVVMKVAEQTPLTALYVANLIKEAGFPPGVVNIVPGFGPTAGAAIASHEDVDKVAFTGSTEIGRVIQVAAGSSNLKRVTLELGGKSPNIIMSDADMDWAVEQAHFALFFNQGQCCCAGSRTFVQEDIYDEFVERSVARAKSRVVGNPFDSKTEQGPQVDETQFKKILGYINTGKQEGAKLLCGGGIAADRGYFIQPTVFGDVQDGMTIAKEEIFGPVMQILKFKTIEEVVGRANNSTYGLAAAVFTKDLDKANYLSQALQAGTVWVNCYDVFGAQSPFGGYKMSGSGRELGEYGLQAYTEVKTVTVKVPQKNS
[7]
  Km: 0.8 mM
